In PMC11397024, “Strategic Fluorination to Achieve a Potent, Selective, Metabolically Stable, and Orally Bioavailable Inhibitor of CSNK2” (Molecules, 2024):

How the values were obtained:
Assay in all cases: NanoBRET K192
Format in all cases: cell-based
AURK A = biological target: T1, AURK A (Homo sapiens, UniProt O14965); details: HEK293
T1 construct: host or cells: HEK293
Summary of the method: (§1)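 HEK293 cells were transfected overnight with NanoLuc–kinase fusion vectors, then treated for 2 h at 37 °C with compound (added as 100 μM working solution) plus K10 tracer. BRET was read at 450/610 nm after substrate and extracellular inhibitor, and fractional occupancy was calculated against no-compound controls.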

CDK17 + Y = biological target: T2, CDK17 + Y (Homo sapiens, UniProt Q00537); details: HEK293
T2 construct: purchased Promega (NanoBRET Target Engagement K192 Kinase Selectivity System)
Summary of the method: as §1

CDK20 + H = biological target: T3, CDK20 + H (Homo sapiens, UniProt Q8IZL9); details: HEK293
T3 construct: purchased Promega (NanoBRET Target Engagement K192 Kinase Selectivity System)
Summary of the method: as §1

CDK4 + D3 = biological target: T4, CDK4 + D3 (Homo sapiens, UniProt P11802); details: HEK293
T4 construct: purchased Promega (NanoBRET Target Engagement K192 Kinase Selectivity System)
Summary of the method: as §1

CLK1 = biological target: T5, CLK1 (Homo sapiens, UniProt P49759)
T5 construct: purchased Promega (NanoBRET Target Engagement K192 Kinase Selectivity System)
T5 sequence (P49759 whole entry): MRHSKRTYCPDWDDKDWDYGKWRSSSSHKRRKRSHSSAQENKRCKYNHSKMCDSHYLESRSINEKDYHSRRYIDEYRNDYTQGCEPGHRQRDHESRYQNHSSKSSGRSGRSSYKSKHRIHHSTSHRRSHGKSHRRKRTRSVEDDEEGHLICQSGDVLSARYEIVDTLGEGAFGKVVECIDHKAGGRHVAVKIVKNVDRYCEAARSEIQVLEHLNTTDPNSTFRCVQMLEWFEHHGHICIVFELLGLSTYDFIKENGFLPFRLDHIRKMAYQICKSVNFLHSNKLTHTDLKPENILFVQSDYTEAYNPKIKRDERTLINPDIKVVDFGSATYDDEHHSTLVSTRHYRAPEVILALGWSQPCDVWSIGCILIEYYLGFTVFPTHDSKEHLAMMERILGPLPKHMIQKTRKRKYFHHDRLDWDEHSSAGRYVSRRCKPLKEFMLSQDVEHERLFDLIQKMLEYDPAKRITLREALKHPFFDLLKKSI
Summary of the method: as §1

CSNK1A1L = biological target: T6, CSNK1A1L (Homo sapiens, UniProt Q8N752); details: HEK293
T6 construct: purchased Promega (NanoBRET Target Engagement K192 Kinase Selectivity System)
T6 sequence (Q8N752 whole entry): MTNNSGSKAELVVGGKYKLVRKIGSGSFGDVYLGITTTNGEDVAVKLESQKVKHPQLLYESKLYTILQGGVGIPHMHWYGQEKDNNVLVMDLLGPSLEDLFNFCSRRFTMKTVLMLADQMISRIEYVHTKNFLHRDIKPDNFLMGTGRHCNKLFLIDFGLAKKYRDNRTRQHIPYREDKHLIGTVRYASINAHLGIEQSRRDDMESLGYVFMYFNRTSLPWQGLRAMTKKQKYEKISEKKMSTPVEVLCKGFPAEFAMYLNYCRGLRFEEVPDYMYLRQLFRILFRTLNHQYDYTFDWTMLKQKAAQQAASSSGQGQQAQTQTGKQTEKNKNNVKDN
Summary of the method: as §1

FGFR2 = biological target: T7, FGFR2 (Homo sapiens, UniProt P21802); details: HEK293
T7 construct: host or cells: HEK293
Summary of the method: as §1

LIMK2 = biological target: T8, LIMK2 (Homo sapiens, UniProt P53671); details: HEK293
T8 construct: purchased Promega (NanoBRET Target Engagement K192 Kinase Selectivity System)
Summary of the method: as §1

MAP3K2 = biological target: T9, MAP3K2 (Homo sapiens, UniProt Q9Y2U5); details: HEK293
T9 construct: purchased Promega (NanoBRET Target Engagement K192 Kinase Selectivity System)
Summary of the method: as §1

MAP3K9 = biological target: T10, MAP3K9 (Homo sapiens, UniProt P80192); details: HEK293
T10 construct: purchased Promega (NanoBRET Target Engagement K192 Kinase Selectivity System)
Summary of the method: as §1

MAP4K1 = biological target: T11, MAP4K1 (Homo sapiens, UniProt Q92918); details: HEK293
T11 construct: purchased Promega (NanoBRET Target Engagement K192 Kinase Selectivity System)
Summary of the method: as §1

MAPK11 = biological target: T12, MAPK11 (Homo sapiens, UniProt Q15759); details: HEK293
T12 construct: purchased Promega (NanoBRET Target Engagement K192 Kinase Selectivity System)
T12 sequence (Q15759 whole entry): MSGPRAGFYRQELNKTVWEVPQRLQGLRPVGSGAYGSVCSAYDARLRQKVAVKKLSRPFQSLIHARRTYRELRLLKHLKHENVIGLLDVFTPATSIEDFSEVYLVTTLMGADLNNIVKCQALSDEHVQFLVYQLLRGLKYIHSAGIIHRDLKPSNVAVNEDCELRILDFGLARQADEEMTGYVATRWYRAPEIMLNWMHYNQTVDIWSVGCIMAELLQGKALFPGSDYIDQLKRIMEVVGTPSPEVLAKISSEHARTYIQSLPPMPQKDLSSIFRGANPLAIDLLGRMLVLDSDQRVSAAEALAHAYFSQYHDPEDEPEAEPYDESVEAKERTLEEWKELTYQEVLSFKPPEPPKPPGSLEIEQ
Summary of the method: as §1

MAPK8 = biological target: T13, MAPK8 (Homo sapiens, UniProt P45983); details: HEK293
T13 construct: purchased Promega (NanoBRET Target Engagement K192 Kinase Selectivity System)
Summary of the method: as §1

MLTK = biological target: T14, MLTK (Homo sapiens, UniProt Q9NYL2); details: HEK293
T14 construct: purchased Promega (NanoBRET Target Engagement K192 Kinase Selectivity System)
Summary of the method: as §1

PAK4 = biological target: T15, PAK4 (Homo sapiens, UniProt O96013); details: HEK293
T15 construct: purchased Promega (NanoBRET Target Engagement K192 Kinase Selectivity System)
Summary of the method: as §1

PKMYT1 = biological target: T16, PKMYT1 (Homo sapiens, UniProt Q99640); details: HEK293
T16 construct: purchased Promega (NanoBRET Target Engagement K192 Kinase Selectivity System)
T16 sequence (Q99640 whole entry): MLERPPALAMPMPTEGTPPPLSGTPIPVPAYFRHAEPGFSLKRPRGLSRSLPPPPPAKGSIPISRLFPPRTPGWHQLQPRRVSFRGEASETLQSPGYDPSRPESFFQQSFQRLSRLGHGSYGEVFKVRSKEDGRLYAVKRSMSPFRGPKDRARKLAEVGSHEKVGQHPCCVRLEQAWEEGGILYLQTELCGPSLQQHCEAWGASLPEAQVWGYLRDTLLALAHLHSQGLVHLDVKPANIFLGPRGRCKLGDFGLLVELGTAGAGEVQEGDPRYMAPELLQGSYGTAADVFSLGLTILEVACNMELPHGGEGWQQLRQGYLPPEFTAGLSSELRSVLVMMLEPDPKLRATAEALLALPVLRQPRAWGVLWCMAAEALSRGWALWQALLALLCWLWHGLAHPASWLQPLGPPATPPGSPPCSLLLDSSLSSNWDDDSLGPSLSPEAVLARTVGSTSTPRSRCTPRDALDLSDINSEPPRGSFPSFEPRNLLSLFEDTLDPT
Summary of the method: as §1

PLK2 = biological target: T17, PLK2 (Homo sapiens, UniProt Q9NYY3); details: HEK293
T17 construct: purchased Promega (NanoBRET Target Engagement K192 Kinase Selectivity System)
Summary of the method: as §1

PLK3 = biological target: T18, PLK3 (Homo sapiens, UniProt Q9H4B4); details: HEK293
T18 construct: purchased Promega (NanoBRET Target Engagement K192 Kinase Selectivity System)
Summary of the method: as §1

PRKAA2 = biological target: T19, PRKAA2 (Homo sapiens, UniProt P54646); details: HEK293
T19 construct: purchased Promega (NanoBRET Target Engagement K192 Kinase Selectivity System)
T19 sequence (P54646 whole entry): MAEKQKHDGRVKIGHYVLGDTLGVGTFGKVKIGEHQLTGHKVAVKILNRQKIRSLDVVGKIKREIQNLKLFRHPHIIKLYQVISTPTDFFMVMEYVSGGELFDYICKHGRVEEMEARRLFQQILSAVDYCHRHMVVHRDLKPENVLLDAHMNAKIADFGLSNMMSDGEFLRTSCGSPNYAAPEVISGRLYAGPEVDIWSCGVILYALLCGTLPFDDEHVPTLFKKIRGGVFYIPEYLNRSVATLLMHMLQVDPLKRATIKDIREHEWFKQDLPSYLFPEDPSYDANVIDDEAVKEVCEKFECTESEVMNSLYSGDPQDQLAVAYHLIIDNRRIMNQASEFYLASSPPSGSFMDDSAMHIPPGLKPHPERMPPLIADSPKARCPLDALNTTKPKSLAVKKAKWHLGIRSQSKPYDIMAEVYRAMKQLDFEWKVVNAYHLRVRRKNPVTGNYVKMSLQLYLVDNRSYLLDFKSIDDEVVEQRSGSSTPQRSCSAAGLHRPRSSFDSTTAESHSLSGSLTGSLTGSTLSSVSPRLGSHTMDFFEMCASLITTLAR
Summary of the method: as §1

PRKACB = biological target: T20, PRKACB (Homo sapiens, UniProt P22694); details: HEK293
T20 construct: purchased Promega (NanoBRET Target Engagement K192 Kinase Selectivity System)
Summary of the method: as §1

PTK6 = biological target: T21, PTK6 (Homo sapiens, UniProt Q13882); details: HEK293
T21 construct: purchased Promega (NanoBRET Target Engagement K192 Kinase Selectivity System)
T21 sequence (Q13882 whole entry): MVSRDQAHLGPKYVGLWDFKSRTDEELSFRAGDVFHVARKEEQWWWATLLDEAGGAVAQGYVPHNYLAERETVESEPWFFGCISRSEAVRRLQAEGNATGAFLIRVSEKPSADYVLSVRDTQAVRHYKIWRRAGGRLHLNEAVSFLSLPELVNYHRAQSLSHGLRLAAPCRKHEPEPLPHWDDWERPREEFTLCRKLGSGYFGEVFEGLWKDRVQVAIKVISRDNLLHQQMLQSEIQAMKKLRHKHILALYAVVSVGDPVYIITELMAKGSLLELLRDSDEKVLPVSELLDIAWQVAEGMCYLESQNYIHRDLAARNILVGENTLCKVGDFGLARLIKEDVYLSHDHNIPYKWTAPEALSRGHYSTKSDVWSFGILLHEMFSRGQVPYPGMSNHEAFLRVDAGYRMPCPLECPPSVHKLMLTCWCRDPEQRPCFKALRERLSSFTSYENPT
Summary of the method: as §1

RIPK2 = biological target: T22, RIPK2 (Homo sapiens, UniProt O43353); details: HEK293
T22 construct: purchased Promega (NanoBRET Target Engagement K192 Kinase Selectivity System)
Summary of the method: as §1

RPS6KA4 = biological target: T23, RPS6KA4 (Homo sapiens, UniProt O75676); details: HEK293
T23 construct: purchased Promega (NanoBRET Target Engagement K192 Kinase Selectivity System)
Summary of the method: as §1

SIK3 = biological target: T24, SIK3 (Homo sapiens, UniProt Q9Y2K2); details: HEK293
T24 construct: purchased Promega (NanoBRET Target Engagement K192 Kinase Selectivity System)
Summary of the method: as §1

SLK = biological target: T25, SLK (Homo sapiens, UniProt Q9H2G2); details: HEK293
T25 construct: purchased Promega (NanoBRET Target Engagement K192 Kinase Selectivity System)
Summary of the method: as §1

STK33 = biological target: T26, STK33 (Homo sapiens, UniProt Q9BYT3); details: HEK293
T26 construct: purchased Promega (NanoBRET Target Engagement K192 Kinase Selectivity System)
Summary of the method: as §1

TNK1 = biological target: T27, TNK1 (Homo sapiens, UniProt Q13470); details: HEK293
T27 construct: purchased Promega (NanoBRET Target Engagement K192 Kinase Selectivity System)
T27 sequence (Q13470 whole entry): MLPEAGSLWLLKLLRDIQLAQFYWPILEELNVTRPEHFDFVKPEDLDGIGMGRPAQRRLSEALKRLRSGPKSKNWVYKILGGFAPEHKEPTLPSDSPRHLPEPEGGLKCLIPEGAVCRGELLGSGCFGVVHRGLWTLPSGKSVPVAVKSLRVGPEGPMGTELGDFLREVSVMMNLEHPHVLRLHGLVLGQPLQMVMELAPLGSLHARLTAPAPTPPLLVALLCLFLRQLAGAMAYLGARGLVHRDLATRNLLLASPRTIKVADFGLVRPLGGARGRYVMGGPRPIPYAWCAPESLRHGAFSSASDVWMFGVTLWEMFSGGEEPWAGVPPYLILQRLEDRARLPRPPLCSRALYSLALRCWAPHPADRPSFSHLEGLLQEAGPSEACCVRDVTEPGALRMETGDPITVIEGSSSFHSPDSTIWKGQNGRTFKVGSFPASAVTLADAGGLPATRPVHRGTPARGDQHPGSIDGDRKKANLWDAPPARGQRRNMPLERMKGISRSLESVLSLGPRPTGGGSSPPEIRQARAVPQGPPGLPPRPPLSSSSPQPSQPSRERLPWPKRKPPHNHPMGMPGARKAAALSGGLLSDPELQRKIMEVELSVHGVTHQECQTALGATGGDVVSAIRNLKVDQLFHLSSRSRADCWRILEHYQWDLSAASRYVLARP
Summary of the method: as §1

ULK1 = biological target: T28, ULK1 (Homo sapiens, UniProt O75385); details: HEK293
T28 construct: purchased Promega (NanoBRET Target Engagement K192 Kinase Selectivity System)
T28 sequence (O75385 whole entry): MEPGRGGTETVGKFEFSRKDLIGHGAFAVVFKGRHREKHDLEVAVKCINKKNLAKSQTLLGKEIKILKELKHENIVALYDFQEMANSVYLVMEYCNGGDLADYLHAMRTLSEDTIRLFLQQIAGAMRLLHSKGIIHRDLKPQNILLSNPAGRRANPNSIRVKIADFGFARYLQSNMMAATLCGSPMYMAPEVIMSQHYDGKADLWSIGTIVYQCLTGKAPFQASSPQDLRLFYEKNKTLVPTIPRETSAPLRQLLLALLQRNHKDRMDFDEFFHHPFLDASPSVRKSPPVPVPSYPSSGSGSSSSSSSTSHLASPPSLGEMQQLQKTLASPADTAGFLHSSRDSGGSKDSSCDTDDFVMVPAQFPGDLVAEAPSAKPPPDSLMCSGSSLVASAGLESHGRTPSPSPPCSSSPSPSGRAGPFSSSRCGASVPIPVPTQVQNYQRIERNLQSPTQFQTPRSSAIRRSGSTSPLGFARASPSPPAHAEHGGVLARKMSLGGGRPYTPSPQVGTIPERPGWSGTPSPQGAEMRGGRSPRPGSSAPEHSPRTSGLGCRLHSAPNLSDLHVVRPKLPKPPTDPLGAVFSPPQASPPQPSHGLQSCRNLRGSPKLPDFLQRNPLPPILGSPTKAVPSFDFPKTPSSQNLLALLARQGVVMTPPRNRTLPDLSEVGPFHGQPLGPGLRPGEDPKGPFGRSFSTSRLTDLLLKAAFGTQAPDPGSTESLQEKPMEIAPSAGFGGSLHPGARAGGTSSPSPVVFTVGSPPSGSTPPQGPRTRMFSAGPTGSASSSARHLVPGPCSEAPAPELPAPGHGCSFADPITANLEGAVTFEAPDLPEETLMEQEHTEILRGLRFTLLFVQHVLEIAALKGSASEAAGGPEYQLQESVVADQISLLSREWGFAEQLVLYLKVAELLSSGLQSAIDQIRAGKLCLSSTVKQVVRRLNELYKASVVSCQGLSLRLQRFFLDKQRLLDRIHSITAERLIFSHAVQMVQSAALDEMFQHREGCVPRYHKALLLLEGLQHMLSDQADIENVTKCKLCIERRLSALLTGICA
Summary of the method: as §1

T1 sequence (O14965 whole entry): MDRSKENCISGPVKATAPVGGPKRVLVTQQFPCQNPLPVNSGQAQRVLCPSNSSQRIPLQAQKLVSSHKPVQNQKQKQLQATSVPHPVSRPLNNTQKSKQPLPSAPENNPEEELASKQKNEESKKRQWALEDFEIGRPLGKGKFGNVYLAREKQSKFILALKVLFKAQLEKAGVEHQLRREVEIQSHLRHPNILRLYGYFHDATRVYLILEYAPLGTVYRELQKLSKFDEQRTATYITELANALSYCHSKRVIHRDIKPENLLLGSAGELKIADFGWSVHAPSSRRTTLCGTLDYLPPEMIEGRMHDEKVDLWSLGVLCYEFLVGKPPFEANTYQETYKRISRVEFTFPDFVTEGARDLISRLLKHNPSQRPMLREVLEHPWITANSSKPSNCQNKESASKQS

`CCC(=O)Nc1cc(Nc2cc(NC3CC3)n3ncc(C#N)c3n2)c(F)cc1N1CCC[C@H](NC)C1` [Compound 2, (S)-N-(5-((3-cyano-7-(cyclopropylamino)pyrazolo[1,5-a]pyrimidin-5-yl)amino)-4-fluoro-2-(3-(methylamino)piperidin-1-yl)phenyl)propionamide] was tested, and the receptor occupancy at 10 µM (AURK A) was -9.3%, the receptor occupancy at 10 µM (CDK17 + Y) was 20.2% and the receptor occupancy at 10 µM (CDK20 + H) was 23.4%. For the same molecule, the receptor occupancy at 10 µM (CDK4 + D3) was 8.5%, the “% occupancy at 10 μM” value (CLK1; CLK1, HEK293) was 76% and the receptor occupancy at 10 µM (CLK1; HEK293, CLK1) was 76.2%. It also gave a receptor occupancy at 10 µM (CSNK1A1L) of 1.5%, a receptor occupancy at 10 µM (FGFR2) of -2.9% and a receptor occupancy at 10 µM (LIMK2) of 1.1%. The receptor occupancy at 10 µM (MAP3K2) was 13.8%, the receptor occupancy at 10 µM (MAP3K9) was 4.3% and the receptor occupancy at 10 µM (MAP4K1) was 5.1%. It also gave a receptor occupancy at 10 µM (MAPK11) of 9.4%, a receptor occupancy at 10 µM (MAPK8) of 0.6% and a receptor occupancy at 10 µM (MLTK) of 1.1%. The receptor occupancy at 10 µM (PAK4) was 4.5%, the receptor occupancy at 10 µM (PKMYT1) was 5.5% and the receptor occupancy at 10 µM (PLK2) was 29.6%. It also gave a receptor occupancy at 10 µM (PLK3) of 15.5%, a receptor occupancy at 10 µM (PRKAA2) of 0.5% and a receptor occupancy at 10 µM (PRKACB) of 9.2%. It also gave a receptor occupancy at 10 µM (PTK6) of 4.4%, a receptor occupancy at 10 µM (RIPK2) of 9.3% and a receptor occupancy at 10 µM (RPS6KA4) of 6.4%. For the same molecule, the receptor occupancy at 10 µM (SIK3) was 2.7%, the receptor occupancy at 10 µM (SLK) was 6.6% and the receptor occupancy at 10 µM (STK33) was 26%. For the same molecule, the receptor occupancy at 10 µM (TNK1) was 6.8% and the receptor occupancy at 10 µM (ULK1) was 25.2%.
